Results from patent EP0960338B1, “DIAGNOSTIC METHODS AND COMPOSITIONS BASED ON THE DISTRIBUTION OF RAD51” (Yale University, priority 1997, dated 1998).
Values joined by “and” are separate entries in the source; they are usually repeats but may differ in a detail not shown here. Identical values can stand only once.

Key:
LNL8 fibroblasts = assay: Immunofluorescent staining of Rad51 foci in nuclei and micronuclei; type: cell-based, human
Description: (§1) Cell Culture. The sources of the cell lines were as follows. Rat TGR-1 cells, J. Sedivy. Brown University; mouse 3T3-Swiss cells, ATCC; human 293 kidney cells, ATCC; human teratoma cells, B. King, Yale University; human LNL8 fibroblasts, S. Meyn, Yale: human XPA and XPF fibroblasts, P Glazer, Yale.
(§2) Monolayer cultures were grown in D-MEM medium supplemented with 10% fetal bovine serum and antibiotics.
(§3) Immunofluorescent Staining.
(§4) Digital Imaging Microscopy.

TGR-1 cells [1] = assay: as above; type: cell-based, rat
Description: as §1, §2, §3, §4

TGR-1 cells [2] = test system: TGR-1 cells
TGR-1 cells [3] = assay: Apoptosis by fluorescence in situ end labeling (FISEL); type: cell-based, rat; settings: for Percentage of Apoptotic Cells: FISEL+
Description: Fluorescence In Situ End Labeling (FISEL). FISEL detects cell death (apoptosis) in situ by quantitating DNA strand breaks in individual nuclei. It uses terminal transferase (TdT) to label the 3'-ends in fragmented genomic DNA with biotinylated nucleotide. 100 µl of reaction mix contain 1 µl (25 Units) TdT (Boehringer Mannheim), 20 µl 5xTdT buffer (supplied with the enyzme), 1 µl 0.5 mM biotin-II-dUTP, 3 µl 0.5 mM dTTP, and 75 µl ddH2O. Cytological preprations are incubated at 37°C for 1 hr with this reaction mix. Washing the slides for 3x5 min in PBS is sufficient to terminate the reaction. The incorporated biotin-dUTP is detected with rhodarnine-conjugated avidin.
Another more classical way for inducing apoptosis in vitro is the exposure of TGR-1 cells to the topoisomerase II inhibitor etoposide.

[4] = LNL8, 10^-5 M 5-aza-dC added 24 hrs before cell harvest
[5] = TGR-1, 10^-5 M 5-aza-dC added 24 hrs before cell harvest
[6] = TGR-1, 2 hrs in medium containing etoposide
[7] = TGR-1, 5 hrs in medium containing etoposide
[8] = TGR-1, 12 hrs in medium containing etoposide
[9] = TGR-1, 18 hrs in medium containing etoposide
[10] = TGR-1, 24 hrs in medium containing etoposide
[11] = TGR-1, 36 hrs in medium containing etoposide

## Nc1ncn([C@H]2C[C@H](O)[C@@H](CO)O2)c(=O)n1 [5-aza-dC, 5-azadeoxycytidine]
LNL8 fibroblasts; [4]
  Percentage of Cells with Type I Foci in Micronuclei: 1%
  Percentage of Cells with Type I Foci in Nuclei: 3%
  Percentage of Cells with Type II Foci in Micronuclei: 5%
  Percentage of Cells with Type II Foci in Nuceli: 2%
  Percentage of Cells without Foci: 89%
LNL8 fibroblasts; human LNL8 fibroblast cultures, non-lethal doses of 5-aza-dC, range stated jointly with TGR-1
  cells displaying MN with focally concentrated Rad51 protein: 5-10%
TGR-1 cells [1]; Rat TGR-1 cultures, non-lethal doses of 5-aza-dC, range stated jointly with LNL8
  cells displaying MN with focally concentrated Rad51 protein: 5-10%
TGR-1 cells [1]; [5]
  Percentage of Cells with Type I Foci in Micronuclei: 4%
  Percentage of Cells with Type I Foci in Nuclei: 5%
  Percentage of Cells with Type II Foci in Micronuclei: 4%
  Percentage of Cells with Type II Foci in Nuceli: 1%
  Percentage of Cells without Foci: 86%

## CN[C@H]1CCc2cc(OC)c(OC)c(OC)c2-c2ccc(OC)c(=O)cc21 [Colcemid, colcemid]
TGR-1 cells [2]
  Percentage of Cells Showing Rad 51+/ FISEL+: 0% and 1% and 6% and 4%
  Percentage of Cells Showing Rad51-/ FISEL-: 85% and 54% and 45% and 43%
  induced MN containing very brightly fluorescing Rad51 foci: over 30%

## COc1cc([C@@H]2c3cc4c(cc3[C@@H](O[C@@H]3O[C@@H]5CO[C@@H](C)O[C@H]5[C@H](O)[C@H]3O)[C@H]3COC(=O)[C@H]23)OCO4)cc(OC)c1O [etoposide]
TGR-1 cells [3]; 12 hrs in medium containing etoposide
  Percentage of Apoptotic Cells: 17%
TGR-1 cells [3]; 18 hrs in medium containing etoposide
  Percentage of Apoptotic Cells: 24%
TGR-1 cells [3]; 24 hrs in medium containing etoposide
  Percentage of Apoptotic Cells: 33%
TGR-1 cells [3]; 36 hrs after adding etoposide to the culture medium
  cells showing genome fragmentation, stained FISEL-positively: half
TGR-1 cells [3]; 36 hrs in medium containing etoposide
  Percentage of Apoptotic Cells: 47%
TGR-1 cells [1]; [6]
  Percentage of Cells with Type I Foci in Micronuclei: 1%
  Percentage of Cells with Type I Foci in Nuclei: 4%
  Percentage of Cells with Type II Foci in Micronuclei: 2%
  Percentage of Cells with Type II Foci in Nuclei: 1%
  Percentage of Cells without Foci: 92%
TGR-1 cells [1]; [7]
  Percentage of Cells with Type I Foci in Micronuclei: 2%
  Percentage of Cells with Type I Foci in Nuclei: 3%
  Percentage of Cells with Type II Foci in Micronuclei: 2%
  Percentage of Cells with Type II Foci in Nuclei: 1%
  Percentage of Cells without Foci: 92%
TGR-1 cells [1]; [8]
  Percentage of Cells with Type I Foci in Micronuclei: 2%
  Percentage of Cells with Type I Foci in Nuclei: 8%
  Percentage of Cells with Type II Foci in Micronuclei: 2%
  Percentage of Cells with Type II Foci in Nuclei: 1%
  Percentage of Cells without Foci: 87%
TGR-1 cells [1]; [9]
  Percentage of Cells with Type I Foci in Micronuclei: 8%
  Percentage of Cells with Type I Foci in Nuclei: 3%
  Percentage of Cells with Type II Foci in Micronuclei: 9%
  Percentage of Cells with Type II Foci in Nuclei: 1%
  Percentage of Cells without Foci: 79%
TGR-1 cells [1]; [10]
  Percentage of Cells with Type I Foci in Micronuclei: 2%
  Percentage of Cells with Type I Foci in Nuclei: 2%
  Percentage of Cells with Type II Foci in Micronuclei: 8%
  Percentage of Cells with Type II Foci in Nuclei: 6%
  Percentage of Cells without Foci: 82%
TGR-1 cells [1]; [11]
  Percentage of Cells with Type I Foci in Micronuclei: 5%
  Percentage of Cells with Type I Foci in Nuclei: 2%
  Percentage of Cells with Type II Foci in Micronuclei: 9%
  Percentage of Cells with Type II Foci in Nuclei: 1%
  Percentage of Cells without Foci: 83%
